Assay results from publication PMC12069442 (Frontiers in Pharmacology, 2025).
Entries after “also recorded” stand apart in the source; their conditions may differ. Structures can show the parent of a compound that is named as a salt.

System: rat liver microsomes (RLM)
Assay: Inhibitor screening on ziprasidone metabolism in RLM
Type: in vitro ADME
Conditions: 100 μM inhibitor, 0.3 mg/mL RLM, ziprasidone 10 μM, 20 min

Compound | Relative activity (%)
Clc1cccc(Cl)c1N=C1NCCN1 [Clonidine hydrochloride] | 74.70 ± 0.47
O=C(NC[C@H]1CN(c2ccc(N3CCOCC3=O)cc2)C(=O)O1)c1ccc(Cl)s1 [Rivaroxaban] | 102.37 ± 4.89
COc1cc(C2Oc3cc([C@H]4Oc5cc(O)cc(O)c5C(=O)[C@@H]4O)ccc3OC2CO)ccc1O (stereo partly drawn) [Silibinin] | 45.13 ± 1.52
COc1c(O)cc(O)c2c(=O)cc(-c3ccccc3)oc12 [Wogonin] | 80.85 ± 12.40
C=C1C[C@@]23CC[C@H]4[C@@](C)(CCC[C@@]4(C)C(=O)O[C@@H]4O[C@H](CO)[C@@H](O)[C@H](O)[C@H]4O)[C@@H]2CC[C@]1(O[C@@H]1O[C@H](CO)[C@@H](O)[C@H](O)[C@H]1O)C3 [Rubusoside] | 103.75 ± 2.05
COc1ccc(C(C)=O)c(O)c1 [Paeonol] | 108.77 ± 3.51
CCCN1CCCC[C@H]1C(=O)Nc1c(C)cccc1C [Ropivacaine hydrochloride] | 102.42 ± 0.84
CCCCc1nc(Cl)c(CO)n1Cc1ccc(-c2ccccc2-c2nn[nH]n2)cc1 [Losartan potassium] | 35.58 ± 50.31
COCCOC(=O)C1=C(C)NC(C)=C(C(=O)OC(C)C)C1c1cccc([N+](=O)[O-])c1 (stereo not drawn) [Nimodipine] | 49.68 ± 0.53
COc1ccc(-c2coc3cc(O)ccc3c2=O)cc1O [Calycosin] | 104.22 ± 12.51
CC(C)(O)[C@H]1CC[C@@](C)([C@H]2[C@@H](O)C[C@@]3(C)[C@@H]4C[C@H](O[C@@H]5O[C@H](CO)[C@@H](O)[C@H](O)[C@H]5O)[C@H]5C(C)(C)[C@@H](O[C@@H]6OC[C@@H](O)[C@H](O)[C@H]6O)CC[C@@]56C[C@@]46CC[C@]23C)O1 [Astragaloside A] | 107.37 ± 18.93
CCCSc1nc(N[C@@H]2C[C@H]2c2ccc(F)c(F)c2)c2nnn([C@@H]3C[C@H](OCCO)[C@@H](O)[C@H]3O)c2n1 [Ticagrelor] | 36.84 ± 20.49
CCCCN1CCCCC1C(=O)Nc1c(C)cccc1C (stereo not drawn) [Bupivacaine hydrochloride] | 104.14 ± 92.28
O=c1cc(-c2ccc(O)cc2)oc2cc(O)cc(O)c12 [Apigenin] | 31.41 ± 2.56
OC(CNCC(O)C1CCc2cc(F)ccc2O1)C1CCc2cc(F)ccc2O1 (stereo not drawn) [Nebivolol Hydrochloride] | 63.48 ± 3.34
CCOc1nc2cccc(C(=O)O)c2n1Cc1ccc(-c2ccccc2-c2nnn[nH]2)cc1 [Candesartan] | 54.29 ± 3.95
CCCCc1oc2ccc(NS(C)(=O)=O)cc2c1C(=O)c1ccc(OCCCN(CCCC)CCCC)cc1 [Dronedarone Hydrochloride] | 23.67 ± 11.05
CC(C)[C@]12O[C@H]1[C@@H]1O[C@]13[C@]1(O[C@H]1C[C@H]1C4=C(CC[C@@]13C)C(=O)OC4)[C@@H]2O [Triptolide] | 87.47 ± 5.70
O=c1cc(-c2ccccc2)oc2cc(O)c(O)c(O)c12 [Baicalein] | 97.20 ± 18.86
COc1c(O[C@@H]2O[C@H](C(=O)O)[C@@H](O)[C@H](O)[C@H]2O)cc(O)c2c(=O)cc(-c3ccccc3)oc12 [Wogonoside] | 92.55 ± 1.09
CCN(CC)CC(=O)Nc1c(C)cccc1C [Lidocaine] | 93.56 ± 10.94
CCCCc1nc(Cl)c(CO)n1Cc1ccc(-c2ccccc2-c2nn[nH]n2)cc1 [Losartan] | 74.09 ± 5.29
CCN(CC)CCNC(=O)c1ccc(N)cc1 [Procainamide hydrochloride] | 113.37 ± 13.44

Compound | Relative activity (%)
COC(=O)[C@H](c1ccccc1Cl)N1CCc2sccc2C1 [Clopidogrel hydrogen sulfate] | 179.48 ± 15.80
O=C1CCc2cc(OCCCCc3nnnn3C3CCCCC3)ccc2N1 [Cilostazol] | 55.05 ± 0.99
COc1cc2c(c(OC)c1OC)-c1c(cc(OC)c(OC)c1OC)C[C@H](C)[C@H](C)C2 [Schisandrin A] | 69.51 ± 11.79
COc1ccccc1OCCNCC(O)COc1cccc2[nH]c3ccccc3c12 (stereo not drawn) [Carvedilol] | 29.89 ± 3.28
Cucurbitacin B | 117.16 ± 18.74
O=c1c(O)c(-c2cc(O)c(O)c(O)c2)oc2cc(O)cc(O)c12 [Myricetin] | 2.64 ± 1.71
C=C[C@H]1C[N@@]2CC[C@H]1C[C@@H]2[C@@H](O)c1ccnc2ccc(OC)cc12 [Quinidine] | 83.40 ± 4.78
O=C(O)[C@H]1O[C@@H](Oc2cc3oc(-c4ccccc4)cc(=O)c3c(O)c2O)[C@H](O)[C@@H](O)[C@@H]1O [Baicalin] | 87.83 ± 13.63
CCOc1nc2cccc(C(=O)O)c2n1Cc1ccc(-c2ccccc2-c2nc(=O)o[nH]2)cc1 [Azilsartan] | 92.59 ± 5.86
O=C1CCC[C@@H]2[C@H]3CCCN4CCC[C@@H](CN12)[C@@H]34 [Matrine] | 98.65 ± 1.77
CC(C)(O)CNc1nc(Nc2ccnc(C(F)(F)F)c2)nc(-c2cccc(C(F)(F)F)n2)n1 [Enasidenib] | 40.44 ± 1.29
Cc1cc(O)c2c(c1)C(=O)c1cc(O)cc(O)c1C2=O [Emodin] | 25.64 ± 3.15
COc1cc(CCC(C)=O)ccc1O [Vanillylacetone] | 93.56 ± 3.00
CCCc1nc2c(C)cc(-c3nc4ccccc4n3C)cc2n1Cc1ccc(-c2ccccc2C(=O)O)cc1 [Telmisartan] | 64.19 ± 12.39
O=C(/C=C/c1ccc(O)c(O)c1)O[C@@H]1C[C@](O)(C(=O)O)C[C@@H](O)[C@H]1O [Chlorogenic acid] | 91.52 ± 17.97
CCCCC1=NC2(CCCC2)C(=O)N1Cc1ccc(-c2ccccc2-c2nnn[nH]2)cc1 [Irbesartan] | 72.41 ± 4.72
CCOC(=O)C1=C(C)NC(C)=C(C(=O)OC)C1c1cccc(Cl)c1Cl (stereo not drawn) [Felodipine] | 28.36 ± 1.67
CCOC(=O)C1=C(COCCN)NC(C)=C(C(=O)OC)C1c1ccccc1Cl (stereo not drawn) [Amlodipine] | 24.44 ± 2.51
COc1cc2ncnc(Nc3ccc(F)c(Cl)c3)c2cc1OCCCN1CCOCC1 [Gefitinib] | 36.20 ± 0.61
O=c1cc(-c2ccccc2)oc2cc(O)cc(O)c12 [Chrysin] | 36.09 ± 19.09
CCCCC(=O)N(Cc1ccc(-c2ccccc2-c2nnn[nH]2)cc1)[C@H](C(=O)O)C(C)C [Valsartan] | 44.50 ± 62.94
C[C@@H]1C(=O)O[C@H](C)[C@H]1C[C@@H](O)[C@](C)(O)[C@H]1CC[C@@]2(O)C3=CC(=O)[C@@H]4C[C@@H](O)[C@@H](O)C[C@]4(C)[C@H]3CC[C@]12C [Cyasterone] | 83.75 ± 6.16
O=c1c(-c2ccc(O)cc2)coc2cc(O)ccc12 [Daidzein] | 121.70 ± 5.16

Same assay, conditions: 100 μM inhibitor, RLM

Compound | suppression of the metabolism of ziprasidone
O=c1c(O)c(-c2ccc(O)c(O)c2)oc2cc(O)cc(O)c12 [quercetin, Quercetin] | over 80%
Oc1ccc(/C=C/c2cc(O)cc(O)c2)cc1 [resveratrol, Resveratrol] | over 80%

System: rat liver microsomes (RLM)
Assay: Kinetics inhibitory assay of quercetin on ziprasidone metabolism in RLM
Type: in vitro ADME
Conditions: RLM

Compound | α
O=c1c(O)c(-c2ccc(O)c(O)c2)oc2cc(O)cc(O)c12 [quercetin, Quercetin] | 0.96

Same assay, conditions: RLM 0.3 mg/mL, ziprasidone 10 μM, quercetin 0–100 μM, n=3

Compound | IC50 [µM]
O=c1c(O)c(-c2ccc(O)c(O)c2)oc2cc(O)cc(O)c12 [quercetin, Quercetin] | 13.8 ± 0.3

Same assay, conditions: RLM, Lineweaver-Burk secondary plot

Compound | Ki [µM] | αKi [µM]
O=c1c(O)c(-c2ccc(O)c(O)c2)oc2cc(O)cc(O)c12 [quercetin, Quercetin] | 30.7 | 29.4

Same assay, conditions: RLM, ziprasidone 2.5–20 μM, quercetin 0, 6.5, 13, 26 μM

Compound | Inhibition type
O=c1c(O)c(-c2ccc(O)c(O)c2)oc2cc(O)cc(O)c12 [quercetin, Quercetin] | mixed inhibitory mechanism; also recorded: mixed inhibition

System: not given
Assay: not given
Set-up: method as in Ye et al., 2024
Conditions: nimodipine coadministration; ref Ye et al., 2024; cited from earlier work

Compound | elevation of AUC | elevation of Cmax
CCN1CCN(c2cc(-c3ccc(F)cc3)c3c(n2)CCCCCC3)CC1 [blonanserin] | more than 2 fold | more than 2 fold

Biological target: human liver microsomes (HLM) (Homo sapiens, UniProt P08684)
Assay: Kinetics inhibitory assay of quercetin on ziprasidone metabolism in HLM
Type: in vitro ADME
Conditions: not given

Sequence of human liver microsomes (HLM) (P08684 2-503): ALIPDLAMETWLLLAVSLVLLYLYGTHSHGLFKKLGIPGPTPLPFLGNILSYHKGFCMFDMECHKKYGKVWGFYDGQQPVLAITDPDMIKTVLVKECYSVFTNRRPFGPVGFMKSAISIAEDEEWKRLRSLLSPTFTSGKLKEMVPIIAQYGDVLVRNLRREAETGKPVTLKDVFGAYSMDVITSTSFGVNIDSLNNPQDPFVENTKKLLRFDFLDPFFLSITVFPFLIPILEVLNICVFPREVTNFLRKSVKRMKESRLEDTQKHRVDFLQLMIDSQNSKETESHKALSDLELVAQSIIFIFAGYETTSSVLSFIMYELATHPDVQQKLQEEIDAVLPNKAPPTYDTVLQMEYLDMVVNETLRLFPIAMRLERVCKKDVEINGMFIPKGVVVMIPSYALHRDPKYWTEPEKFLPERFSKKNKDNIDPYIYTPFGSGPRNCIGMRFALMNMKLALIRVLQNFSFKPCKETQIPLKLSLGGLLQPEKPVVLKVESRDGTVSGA

Compound | α
O=c1c(O)c(-c2ccc(O)c(O)c2)oc2cc(O)cc(O)c12 [quercetin, Quercetin] | 0.21

Same assay, conditions: Lineweaver-Burk secondary plot

Compound | αKi [µM]
O=c1c(O)c(-c2ccc(O)c(O)c2)oc2cc(O)cc(O)c12 [quercetin, Quercetin] | 4.66

System: human liver microsomes (HLM) (Homo sapiens)
Assay: as above
Type: in vitro ADME
Conditions: ziprasidone 2.5–20 μM, quercetin 0, 6.25, 12.5, 25 μM

Sequence of human liver microsomes (HLM) (Homo sapiens) (P08684 2-503): as above

Compound | Inhibition type
O=c1c(O)c(-c2ccc(O)c(O)c2)oc2cc(O)cc(O)c12 [quercetin, Quercetin] | mixed inhibitory mechanism; also recorded: mixed inhibition

Biological target: CYP3A4.1 (Homo sapiens, UniProt P08684)
Assay: not given
Conditions: not given

Sequence of CYP3A4.1 (P08684 whole entry): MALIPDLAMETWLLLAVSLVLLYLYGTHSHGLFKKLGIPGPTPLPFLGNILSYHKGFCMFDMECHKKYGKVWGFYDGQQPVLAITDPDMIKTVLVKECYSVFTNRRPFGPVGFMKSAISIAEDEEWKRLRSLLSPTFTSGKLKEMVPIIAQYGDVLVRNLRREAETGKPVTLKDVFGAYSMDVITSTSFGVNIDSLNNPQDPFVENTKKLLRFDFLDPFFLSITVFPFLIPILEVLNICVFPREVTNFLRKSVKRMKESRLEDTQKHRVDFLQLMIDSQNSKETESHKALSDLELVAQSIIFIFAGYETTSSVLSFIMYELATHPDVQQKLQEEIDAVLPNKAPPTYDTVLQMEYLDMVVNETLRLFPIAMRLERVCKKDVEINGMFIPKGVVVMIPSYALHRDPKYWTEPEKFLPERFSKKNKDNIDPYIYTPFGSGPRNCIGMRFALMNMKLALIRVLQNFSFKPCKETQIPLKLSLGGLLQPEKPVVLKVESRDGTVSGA

Compound | α | αKi [µM]
O=c1c(O)c(-c2ccc(O)c(O)c2)oc2cc(O)cc(O)c12 [quercetin, Quercetin] | 0.66 | 10.06
